From ChEMBL document CHEMBL2074149, “Structural and functional characteristics and tissue distribution pattern of rat OCTN1, an organic cation transporter, cloned from placenta” (Biochim Biophys Acta, 2000) come the findings set out here.

Type in all cases: functional, cell-based
The target of series [1] is T1, Solute carrier family 22 member 4 (Rattus norvegicus, UniProt Q9R141).
T1 sequence (Q9R141 whole entry): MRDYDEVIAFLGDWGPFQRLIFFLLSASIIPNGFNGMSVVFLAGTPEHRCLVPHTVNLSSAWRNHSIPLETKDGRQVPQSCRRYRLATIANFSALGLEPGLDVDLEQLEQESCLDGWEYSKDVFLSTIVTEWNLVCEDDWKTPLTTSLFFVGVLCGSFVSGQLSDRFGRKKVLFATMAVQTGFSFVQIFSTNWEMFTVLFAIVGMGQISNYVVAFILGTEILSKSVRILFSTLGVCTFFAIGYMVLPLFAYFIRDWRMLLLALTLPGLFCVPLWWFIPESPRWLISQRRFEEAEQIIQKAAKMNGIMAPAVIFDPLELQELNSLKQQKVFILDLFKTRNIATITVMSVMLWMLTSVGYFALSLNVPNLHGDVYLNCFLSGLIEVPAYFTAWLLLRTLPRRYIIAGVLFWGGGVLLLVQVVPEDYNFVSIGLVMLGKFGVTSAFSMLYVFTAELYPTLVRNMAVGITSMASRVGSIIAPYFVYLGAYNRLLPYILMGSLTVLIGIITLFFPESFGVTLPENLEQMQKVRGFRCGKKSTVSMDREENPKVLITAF
The experiment in a line: TP_TRANSPORTER: inhibition of TEA uptake in Octn1-HRPE cells.

For series [2], the target named is T2, OCTN1 (Solute carrier family 22 member 4, SLC22A4) (Rattus norvegicus, UniProt Q9R141).
T2 sequence (Q9R141 whole entry): T1 sequence (Q9R141 whole entry)
Nature of the series: TP_TRANSPORTER: inhibition of TEA uptake by 1-methyl-4-phenylpyridinium at 5mM in Octn1-HRPE cells. Also noted: scale not given: the % may be the effect or the level left. To be noted: human, HRPE cells that express Octn1, probe TEA (tetraethylammonium); read-out: Activity.

Series [3] concerns the target T1, Solute carrier family 22 member 4. Nature of the series: TP_TRANSPORTER: inhibition of TEA uptake by Amiloride at 1mM in Octn1-HRPE cells. Also noted: scale not given: the % may be the effect or the level left. Particulars: human, 1000 µM.
The target of series [4] is T2, OCTN1 (Solute carrier family 22 member 4, SLC22A4). Nature of the series: TP_TRANSPORTER: inhibition of TEA uptake by Verapamil at 5mM in Octn1-HRPE cells. To be noted: human, HRPE cells that express Octn1, probe TEA (tetraethylammonium); read-out: Activity. Also noted: scale not given: the % may be the effect or the level left.
For series [5] the target is unchanged. Nature of the series: TP_TRANSPORTER: inhibition of TEA uptake by Imipramine at 1mM in Octn1-HRPE cells. On the set-up: scale not given: the % may be the effect or the level left. Particulars: human, HRPE cells that express Octn1, probe TEA (tetraethylammonium); read-out: Activity.

For `CCN(CC)CCNC(=O)c1ccc(N)cc1` [PROCAINAMIDE], the IC50 in series [1] is 1 mM.
As for `C[n+]1ccc(-c2ccccc2)cc1`, the activity at 5000 µM in series [2] stood at 62%.
Take `CC[N+](CC)(CC)CC` [TETRYLAMMONIUM]: half-maximal inhibition in series [1] (IC50) was put at 1 mM.
`CN(C)c1nc(N)c(C(=O)NC(=N)N)nc1Cl` gave an IC50 in series [1] of 0.2 mM.
On to `N=C(N)NC(=O)c1nc(Cl)c(N)nc1N` [AMILORIDE], for which the Activity in series [3] is listed as 79%.
Turning to `COc1ccc(CCN(C)CCCC(C#N)(c2ccc(OC)c(OC)c2)C(C)C)cc1OC` (centres undefined) [VERAPAMIL], the activity at 5000 µM in series [4] is 20%.
In series [1], `CNCCCN1c2ccccc2CCc2ccccc21` [DESIPRAMINE] displayed an IC50 of 0.08 mM.
In series [1], `CN/C(=N/CCSCc1nc[nH]c1C)NC#N` [CIMETIDINE] gave a concentration for half-maximal inhibition (IC50) of 1.5 mM.
As to `CN(C)CCCN1c2ccccc2CCc2ccccc21` [IMIPRAMINE], in series [5], the activity at 1000 µM stood at 31%.

Usually IC50 stands for the concentration at which inhibition is half-maximal.
